# US8962608B2, “Cycloalkylnitrile pyrazole carboxamides as janus kinase inhibitors” (Merck Sharp & Dohme Corp., priority 2011, dated 2015)
# Structures can show the parent of a compound that is named as a salt.
# What was measured:
# [1] = biological target: JAK2 (recombinant purified GST-tagged catalytic domain) (Homo sapiens (Human), UniProt O60674); experiment: biochemical;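 further: biochemical JAK kinase assay with HTRF detection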
# [2] = biological target: JAK1 (recombinant purified GST-tagged catalytic domain) (Homo sapiens (Human), UniProt P23458); experiment: biochemical;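 further: biochemical assay with HTRF read-out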
# JAK1 (recombinant purified GST-tagged catalytic domain), sequence (P23458 875-1153): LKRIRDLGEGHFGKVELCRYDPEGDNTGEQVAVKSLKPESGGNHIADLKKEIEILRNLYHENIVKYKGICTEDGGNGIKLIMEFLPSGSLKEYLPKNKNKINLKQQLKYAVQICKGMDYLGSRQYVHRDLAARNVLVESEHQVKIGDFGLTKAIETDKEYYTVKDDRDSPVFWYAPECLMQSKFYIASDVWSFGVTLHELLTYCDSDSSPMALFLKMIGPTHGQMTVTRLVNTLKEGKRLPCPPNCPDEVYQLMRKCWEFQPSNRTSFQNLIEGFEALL
# JAK2 (recombinant purified GST-tagged catalytic domain), sequence (O60674 849-1124): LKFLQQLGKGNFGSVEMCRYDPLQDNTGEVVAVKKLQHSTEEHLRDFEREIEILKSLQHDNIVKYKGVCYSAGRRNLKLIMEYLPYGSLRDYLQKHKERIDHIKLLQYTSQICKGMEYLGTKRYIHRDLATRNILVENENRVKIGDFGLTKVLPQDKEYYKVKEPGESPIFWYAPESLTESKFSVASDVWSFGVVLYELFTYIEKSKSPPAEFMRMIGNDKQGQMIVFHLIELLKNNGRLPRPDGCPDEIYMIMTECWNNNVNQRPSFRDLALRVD
SMILES,IC50 [1] [nM],IC50 [2] [nM]
"N#Cc1ccc(Nc2nn([C@H]3CC[C@@H](O)C[C@@H]3C#N)cc2C(N)=O)cc1 (single isomer, unassigned) [Example 25-4, 1-[(1S,2S,4R or 1R,2R,4S)-2-cyano-4-hydroxycyclohexyl]-3-[(4-cyanophenyl)amino]-1H-pyrazole-4-carboxamide]",3,0.55
"Cn1cc(-c2cc(Nc3nn([C@H]4CCCC[C@@H]4C#N)cc3C(N)=O)ccn2)cn1 (racemic) [Example 17-22, 1-[(1S,2S and 1R,2R)-2-cyanocyclohexyl]-3-{[2-(1-methyl-1H-pyrazol-4-yl)pyridin-4-yl]amino}-1H-pyrazole-4-carboxamide]",60,3
"N#C[C@H]1C[C@@H](N)CCC1n1cc(C(N)=O)c(Nc2ccc(F)cc2)n1 (mixture of isomers) [Example 29, (1S,3S,4S and 1R,3R,4R)-4-{4-Carbamoyl-3-[(4-fluorophenyl)amino]-1H-pyrazol-1-yl}-3-cyanocyclohexanaminium trifluoroacetate]",35,1
"N#C[C@H]1CCCC[C@@H]1n1cc(C(N)=O)c(Nc2cnc3ccc(F)cc3c2)n1 (single isomer, unassigned) [Example 17-48, 1-[(1S,2S or 1R,2R)-2-cyanocyclohexyl]-3-[(6-fluoroquinolin-3-yl)amino]-1H-pyrazole-4-carboxamide]",14,2
"N#C[C@@H]1C[C@H](OCC2CC2)CC[C@@H]1n1cc(C(N)=O)c(Nc2ccnc(F)c2)n1 (single isomer, unassigned) [Example 26-4, 1-[(1S,2R,4R or 1R,2S,4S)-2-cyano-4-(cyclopropylmethoxy)cyclohexyl]-3-[(2-fluoropyridin-4-yl)amino]-1H-pyrazole-4-carboxamide]",74,21
"N#C[C@H]1CCCC[C@@H]1n1cc(C(N)=O)c(Nc2ccc(C(F)(F)F)nc2)n1 (single isomer, unassigned) [Example 17-101, 1-[(1S,2S or 1R,2R)-2-cyanocyclohexyl]-3-{[6-(trifluoromethyl)pyridin-3-yl]amino}-1H-pyrazole-4-carboxamide]",9,2
"N#C[C@@H]1CCCC[C@H]1n1cc(C(N)=O)c(Nc2ccc(C(F)F)nc2)n1 (single isomer, unassigned) [Example 17-55, 1-[(1R,2R or 1S,2S)-2-cyanocyclohexyl]-3-{[6-(difluoromethyl)pyridin-3-yl]amino}-1H-pyrazole-4-carboxamide]",255,41
"CN(C)CC1CCC(n2cc(C(N)=O)c(Nc3ccc(F)cc3)n2)[C@H](C#N)C1 (mixture of isomers) [Example 10, 1-((1R,2R and 1S,2S)-2-Cyano-4-((dimethylamino)methyl)cyclohexyl)-3-((4-fluorophenyl)amino)-1H-pyrazole-4-carboxamide]",357,11

# More lines, now with the values ahead:
IC50 [1] [nM],IC50 [2] [nM],SMILES
173,7,"CN(C)[C@@H]1CC[C@H](n2cc(C(N)=O)c(Nc3ccc(Cl)c(F)c3)n2)[C@@H](C#N)C1 (single isomer, unassigned) [Example 28-38, 3-[(4-chloro-3-fluorophenyl)amino]-1-[(1S,2S,4R or 1R,2R,4S)-2-cyano-4-(dimethylamino)cyclohexyl]-1H-pyrazole-4-carboxamide]"
17,0.6,"COCCN(C)[C@H]1CC[C@H](n2cc(C(N)=O)c(Nc3ccc(S(=O)(=O)C(F)(F)F)cc3)n2)[C@@H](C#N)C1 (single isomer, unassigned) [Example 28-149, 1-{(1S,2S,4S or 1R,2R,4R)-2-cyano-4-[(2-methoxy-ethyl)(methyl)amino]cyclohexyl}-3-({4-[(trifluoromethyl)sulfonyl]phen-yl}amino)-1H-pyrazole-4-carboxamide]"
20,2,"N#C[C@H]1C[C@@H](O)CC[C@@H]1n1cc(C(N)=O)c(Nc2ccc(Cl)c(Cl)c2)n1 (single isomer, unassigned) [Example 33-20, 1-[(1S,2S,4S or 1R,2R,4R)-2-cyano-4-hydroxycyclohexyl]-3-[(3,4-dichlorophenyl)amino]-1H-pyrazole-4-carboxamide]"
4,1,"N#C[C@H]1C[C@@H](N2CCC23COC3)CC[C@@H]1n1cc(C(N)=O)c(Nc2ccc(Cl)cc2)n1 (single isomer, unassigned) [Example 28-146, 3-[(4-chlorophenyl)amino]-1-[(1S,2S,4S or 1R,2R,4R)-2-cyano-4-(6-oxa-1-azaspiro[3.3]hept-1-yl)cyclohexyl]-1H-pyrazole-4-carboxamide]"
122,1,"N#C[C@H]1C[C@H](N2CC3(CCC3)C2)CC[C@@H]1n1cc(C(N)=O)c(Nc2ccnc(F)c2)n1 (single isomer, unassigned) [Example 28-143, 1-[(1S,2S,4R or 1R,2R,4S)-4-(2-azaspiro[3.3]hept-2-yl)-2-cyanocyclohexyl]-3-[(2-fluoropyridin-4-yl)amino]-1H-pyrazole-4-carboxamide]"
4,0.7,"N#C[C@H]1C[C@H](NC2COC2)CC[C@@H]1n1cc(C(N)=O)c(Nc2ccc(CC(F)(F)F)cc2)n1 (single isomer, unassigned) [Example 28-77, 1-[(1S,2S,4R or 1R,2R,4S)-2-cyano-4-(oxetan-3-ylamino)cyclohexyl]-3-{[4-(2,2,2-trifluoroethyl)phenyl]amino}-1H-pyrazole-4-carboxamide]"
32,0.65,"CN(C)[C@H]1CC[C@H](n2cc(C(N)=O)c(Nc3ccccc3)n2)[C@@H](C#N)C1 (single isomer, unassigned) [Example 28-135, 1-[(1S,2S,4S or 1R,2R,4R)-2-cyano-4-(dimethylamino)cyclohexyl]-3-(phenylamino)-1H-pyrazole-4-carboxamide]"
48,2,"COC(C)(C)CN[C@H]1CCC(n2cc(C(N)=O)c(Nc3ccc(Cl)cc3)n2)[C@@H](C#N)C1 (single isomer, unassigned) [Example 28-228, 3-[(4-chlorophenyl)amino]-1-{(1S,2S,4S or 1R,2R,4R)-2-cyano-4-[(2-methoxy-2-methylpropyl)amino]cyclo-hexyl}-1H-pyrazole-4-carboxamide]"
44,1,"CC1CN([C@H]2CC[C@H](n3cc(C(N)=O)c(Nc4ccccc4)n3)[C@@H](C#N)C2)C1 (single isomer, unassigned) [Example 28-141, 1-[(1S,2S,4S or 1R,2R,4R)-2-cyano-4-(3-methylazetidin-1-yl)cyclohexyl]-3-(phenylamino)-1H-pyrazole-4-carboxamide]"
200,4,"C[C@H](N[C@@H]1CC[C@H](n2cc(C(N)=O)c(Nc3ccc(OC(F)(F)F)cc3)n2)[C@@H](C#N)C1)C1CC1 (single isomer, unassigned) [Example 28-55, 1-[(1S,2S,4R or 1R,2R,4S)-2-cyano-4-{[(1S)-1-cyclopropylethyl]amino}cyclo-hexyl]-3-{[4-(trifluoromethoxy)phenyl]amino}-1H-pyrazole-4-carboxamide]"
85,1,"C[C@H](N[C@H]1CC[C@H](n2cc(C(N)=O)c(Nc3ccc(Cl)cc3)n2)[C@@H](C#N)C1)C1CC1 (single isomer, unassigned) [Example 28-119, 3-[(4-chlorophenyl)amino]-1-[(1S,2S,4S or 1R,2R,4R)-2-cyano-4-{[(1R)-1-cyclopropylethyl]amino}cyclo-hexyl]-1H-pyrazole-4-carboxamide]"
2,0.3,"N#C[C@H]1C[C@@H](O)CC[C@@H]1n1cc(C(N)=O)c(Nc2ccc([C@H](O)C(F)(F)F)cc2)n1 (single isomer, unassigned) [Example 33-10, 1-[(1S,2S,4S or 1R,2R,4R)-2-cyano-4-hydroxycyclohexyl]-3-({4-[(1S)-2,2,2-trifluoro-1-hydroxyethyl]phenyl}amino)-1H-pyrazole-4-carboxamide]"
18,0.4,"CC(=O)c1ccc(Nc2nn([C@H]3CC[C@@H](N4CCC4)C[C@@H]3C#N)cc2C(N)=O)cc1 (single isomer, unassigned) [Example 28-83, 3-[(4-acetylphenyl)amino]-1-[(1S,2S,4R or 1R,2R,4S)-4-azetidin-1-yl-2-cyanocyclohexyl]-1H-pyrazole-4-carboxamide]"
500,25,"N#C[C@H]1C[C@@H](C(=O)NC(C2CC2)C2CC2)CC[C@@H]1n1cc(C(N)=O)c(Nc2ccc(Cl)cc2)n1 (single isomer, unassigned) [Example 35-21, 3-[(4-chlorophenyl)amino]-1-{(1S,2S,4S or 1R,2R,4R)-2-cyano-4-[(dicyclopropylmethyl)carbamoyl]cyclohexyl}-1H-pyrazole-4-carboxamide]"
48,1,"N#C[C@H]1C[C@H](NCC2(O)CC2)CC[C@@H]1n1cc(C(N)=O)c(Nc2ccc(C(F)(F)F)cc2)n1 (single isomer, unassigned) [Example 28-35, 1-[(1S,2S,4R or 1R,2R,4S)-2-cyano-4-{[(1-hydroxycyclo-propyl)methyl]amino}cyclo-hexyl]-3-{[4-(trifluoro-methyl)phenyl]amino}-1H-pyrazole-4-carboxamide]"
20,2,"COCCN(C)[C@H]1CCC(n2cc(C(N)=O)c(Nc3ccc(Cl)cc3)n2)[C@@H](C#N)C1 (single isomer, unassigned) [Example 28-239, 3-[(4-chlorophenyl)amino]-1-{(1S,2S,4S or 1R,2R,4R)-2-cyano-4-[(2-methoxy-ethyl)(methyl)amino]cyclo-hexyl}-1H-pyrazole-4-carboxamide]"
17,1,"N#C[C@H]1CC(N2CC[C@H](F)C2)CC[C@@H]1n1cc(C(N)=O)c(Nc2ccc(S(=O)(=O)C(F)(F)F)cc2)n1 (single isomer, unassigned) [Example 28-158, 1-{(1S,2S or 1R,2R)-2-cyano-4-[(3S)-3-fluoropyrrolidin-1-yl]cyclohexyl}-3-({4-[(trifluoro-methyl)sulfonyl]phenyl}amino)-1H-pyrazole-4-carboxamide]"
